Measurements taken from patent US5459129A, “Condensed heterocyclic compounds, their production and use” (Takeda Chemical Industries, Ltd., priority 1990, dated 1995).

Columns and labels:
[1] = tested on: Meth A fibrosarcoma (Meth A) cells; assay: Inhibiting action against growth of Meth A fibrosarcoma cells in vitro; assay type: cell-based; settings: 72 hours culture, Coulter counter, read-out: IC50 (concentration required for decreasing the number of cells in the untreated control group by 50%)
Method: Meth A cells (2×10^4 /ml) prepared by a conventional method were inoculated into each well of the 12-microwell plate (2.0 ml in a well), and subjected to standing culture at 37° C. under 5% CO2. The compounds obtained in Working Examples dissolved at appropriate concentrations were diluted to 2-10 times stepwise with an MEM (Nissui Pharmaceutical Co., Ltd.) solution, to and the resulting dilutions were added to the culture medium. The medium was again subjected to standing culture at 37° C. under 5% CO2 for 72 hours. Then, the total number of cells at each concentration was measured by Coulter counter (Coulter Electronic, Florida in U.S.A.), and the average value of the cells in three wells was expressed by the number of cells per milliliter.
The concentrations of the respective compounds required for decreasing the number of cells in the untreated control group by 50% was made IC50 of the respective compounds.

[2] = biological target: T1, thymidylate acid synthase (TS) (Mus musculus, UniProt P07607); assay: Determination of TS inhibiting action; assay type: biochemical; settings: roughly refined TS fraction from Meth A fibrosarcoma cells; [3H]dUMP, 1 hour at 37° C.; read-out: IC50 TS (concentration required for 50% inhibiting the TS activity)
T1 construct: endogenous in cells; host or cells: Meth A fibrosarcoma cells (sonicated; 100,000 x g supernatant)
Method: A roughly refined fraction of TS was prepared from Meth A fibrosarcoma cells serially cultivated in vitro. For culturing the cells, Eagle's minimum essential medium containing 10% (v/v) bovine fetal serum [MEM; Nissui Pharmaceutical Co. Ltd.] was used. The cells in logarithmic growth were recovered and washed twice with a physiological aqueous saline solution buffered with phosphate, which was then suspended in 0.2M sucrose, 0.01M Tris.HCl buffer solution (pH 7.5). The cells were destroyed by ultrasonic wave, and the suspension was subjected to centrifugation (100,000×g), then the supernatant was collected. Using bovine γ-groblin as the standard protein, the protein concentration was measured by using a protein.dye reagent (Bio-Rad), so that the protein concentration was adjusted to 10 mg/ml.
Enzymic reaction was conducted by partially modifying the method described in Biochemistry 5, 3546 (1966). The composition of the reaction medium was as follows; 0.058% (v/v) formaldehyde, 6.78 mM sodium fluoride, 0.2 mM 2-mercapto ethanol, 6.24 mg/ml bovine serum albumin, 80 μM 2'-deoxyuridine-5'-1 phosphoric acid (dUMP), 80 μM tetrahydrofolic acid, 2 mg/ml roughly refined TS fraction and 0.173M Tris.HCl buffer solution (pH 7.5). To the reaction medium were added the compounds of various concentrations obtained in Working Examples. 540 KBg of [^3 H] dUMP relative to 50 μl of the ultimate reaction medium was added, and the reaction was allowed to proceed for 1 hour at 37° C. in a 96-microwell plate. After completion of the reaction, 26.65% trichloroacetic acid and 3.33 mg/ml dUMP were added to suspend the reaction. To the reaction mixture was added 220 μl of 11.4 mg/ml activated charcoal. The whole mixture was subjected to centrifugation, and the radioactivity in 100 μl of the supernatant was measured by liquid scintillation counter to determine the concentration required for 50% inhibiting the TS activity (ICa50), as shown in Table 1.

[3] = biological target: T2, 5-aminoimidazole-4-carboxyamide ribonucleotide transformylase (AICARTF) (Homo sapiens, UniProt P31939); assay: Measurement of AICARTF inhibiting action; assay type: biochemical; settings: AICARTF prepared from CCRF-CEM human lymphoblast leukemia cells; absorbance at 298 nm for 15 minutes; read-out: IC50 AICARTF (concentration required for 50% inhibiting the activity of AICARTF)
T2 construct: AICARTF was prepared from CCRF-CEM human lymphoblast leukemia cells; endogenous in cells; host or cells: CCRF-CEM human lymphoblast leukemia cells
Method: AICARTF was prepared from CCRF-CEM human lymphoblast leukemia cells by partially modifying the method described in Biochemistry 20 337 (1981), S. J. Benkovic, et al.
The enzymic reaction was conducted by adding the compounds of various concentrations in Working Examples to 0.95 ml of a solution consisting of a […] Tris.HCl buffer solution (pH 7.4), 5 μM 2-mercaptoethanol,25 μM potassium chloride, 0.1 μM (-)-10-formyl tetrahydrofolic acid and AICARTF, and, before starting the reaction, 0.05 ml of 1 mM 5-aminoimidazole-4-carboxylamide ribonucleotide.
The UV spectrum was measured at 298 nm for 15 minutes at the interval of 15 seconds to evaluate by the increase of absorbance due to the production of tetrahydrofolic acid to determine the concentration required for 50% inhibiting the activity of AICARTF (IC50).

T2 sequence (P31939 whole entry): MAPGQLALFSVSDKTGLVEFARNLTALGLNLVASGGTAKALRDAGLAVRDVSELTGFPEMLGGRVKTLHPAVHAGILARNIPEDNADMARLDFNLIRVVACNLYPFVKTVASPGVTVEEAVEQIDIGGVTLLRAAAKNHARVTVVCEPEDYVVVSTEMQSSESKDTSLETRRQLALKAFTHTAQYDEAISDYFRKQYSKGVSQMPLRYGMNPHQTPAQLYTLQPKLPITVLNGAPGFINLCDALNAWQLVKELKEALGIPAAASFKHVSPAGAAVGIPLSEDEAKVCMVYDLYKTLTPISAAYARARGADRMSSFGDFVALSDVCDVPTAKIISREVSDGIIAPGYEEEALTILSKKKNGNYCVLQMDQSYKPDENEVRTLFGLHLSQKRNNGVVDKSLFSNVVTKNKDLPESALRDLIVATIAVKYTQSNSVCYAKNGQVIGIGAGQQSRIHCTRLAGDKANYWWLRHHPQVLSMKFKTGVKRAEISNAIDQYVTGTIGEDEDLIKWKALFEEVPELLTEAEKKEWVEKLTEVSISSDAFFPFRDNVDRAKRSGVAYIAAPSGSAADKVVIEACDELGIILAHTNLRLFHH
T1 sequence (P07607 whole entry): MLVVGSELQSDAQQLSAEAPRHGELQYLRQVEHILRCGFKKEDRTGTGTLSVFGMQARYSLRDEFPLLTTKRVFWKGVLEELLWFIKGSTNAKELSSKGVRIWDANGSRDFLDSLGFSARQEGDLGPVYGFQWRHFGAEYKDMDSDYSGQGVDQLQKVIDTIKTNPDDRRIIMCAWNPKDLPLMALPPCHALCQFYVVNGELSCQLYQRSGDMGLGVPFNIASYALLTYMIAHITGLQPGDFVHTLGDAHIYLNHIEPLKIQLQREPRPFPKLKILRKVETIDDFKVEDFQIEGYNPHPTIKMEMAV

How did the IC50 [1] turn out when `Nc1nc(N)c2c(CCCc3ccc(C(=O)N[C@@H](CCC(=O)N[C@@H](CCC(=O)O)C(=O)O)C(=O)O)cc3)c[nH]c2n1` [Ex. 6, [N-[4-[3-(2,4-diamino-7H-pyrrolo[2,3-d]pyrimidin-5-yl)propyl]benzoyl]-γ-L-glutamyl]-L-glutamic acid] was run?
The IC50 was 610 nM.

And the IC50 [2]?
Its IC50 is 36 µM.

And the IC50 [3]?
Its IC50 is 9000 nM.

How did the IC50 [1] turn out when `Nc1nc(N)c2c(CCCc3ccc(C(=O)N[C@@H](CCC(=O)N[C@@H](CCC(=O)N[C@@H](CCC(=O)O)C(=O)O)C(=O)O)C(=O)O)cc3)c[nH]c2n1` [Ex. 7, [N-[4-[3-(2,4-diamino-7H-pyrrolo[2,3-d]pyrimidin-5-yl)propyl]benzoyl]-γ-L-glutamyl]-γ-L-glutamyl-L-glutamic acid] was run?
The IC50 was 580 nM.

What about the IC50 [2] of the same molecule?
The IC50 was 40 µM.

What about the IC50 [3] of the same molecule?
Its IC50 is 6000 nM.

Which results are given for `Nc1nc(N)c2c(CCCc3ccc(C(=O)N[C@@H](CCC(=O)N[C@@H](CCC(=O)N[C@@H](CCC(=O)O)C(=O)O)C(=O)O)C(=O)O)cc3)c[nH]c2n1` [Ex. 8, [N-[4-[3-(2,4-diamino-7H-pyrrolo[2,3-d]pyrimidin-5-yl)propyl]benzoyl]-γ-L-glutamyl]-γ-L-glutamyl-γ-L-glutamic acid]?
IC50 [2]: 21 µM; IC50 [3]: 600 nM

How did the IC50 [2] turn out when `Nc1nc(N)c2c(CCCc3ccc(C(=O)N[C@@H](CCC(=O)N[C@@H](CCC(=O)N[C@@H](CCC(=O)N[C@@H](CCC(=O)N[C@@H](CCC(=O)O)C(=O)O)C(=O)O)C(=O)O)C(=O)O)C(=O)O)cc3)c[nH]c2n1` [Ex. 9, [N-[4-[3-(2,4-diamino-7H-pyrrolo[2,3-d]pyrimidin-5-yl)propyl]benzoyl]-γ-L-glutamyl]-γ-L-glutamyl-γ-L-glutamyl-γ-L-glutamyl-L-glutamic acid] was run?
The IC50 was 20 µM.

What about the IC50 [3] of the same molecule?
The IC50 was 400 nM.

`Nc1nc(N)c2c(CCCc3ccc(C(=O)N[C@@H](CCC(=O)N[C@@H](CCC(=O)N[C@@H](CCC(=O)N[C@@H](CCC(=O)N[C@@H](CCC(=O)N[C@@H](CCC(=O)O)C(=O)O)C(=O)O)C(=O)O)C(=O)O)C(=O)O)C(=O)O)cc3)c[nH]c2n1` [Ex. 10, [N-[4-[3-(2,4-diamino-7H-pyrrolo[2,3-d]pyrimidin-5-yl)propyl]benzoyl]-γ-L-glutamyl]-γ-L-glutamyl-γ-L-glutamyl-γ-L-glutamyl-γ-L-glutamyl-L-glutamic acid] was tested. Which IC50 [2] did it give?
Its IC50 is 20 µM.

And the IC50 [3]?
The IC50 was 200 nM.
